Legend:
Fumarate reductase = target: T1, Fumarate reductase (Ascaris suum, UniProt F1KRD8); assay: Inhibition of NADH-Fumarate reductase in Ascaris suum muscle sub-mitochondrial particles using disodium fumarate as substrate in presence of NADH after 3 mins measured every 15 sec for 10 mins under anaerobic condition
T1 sequence (F1KRD8 whole entry): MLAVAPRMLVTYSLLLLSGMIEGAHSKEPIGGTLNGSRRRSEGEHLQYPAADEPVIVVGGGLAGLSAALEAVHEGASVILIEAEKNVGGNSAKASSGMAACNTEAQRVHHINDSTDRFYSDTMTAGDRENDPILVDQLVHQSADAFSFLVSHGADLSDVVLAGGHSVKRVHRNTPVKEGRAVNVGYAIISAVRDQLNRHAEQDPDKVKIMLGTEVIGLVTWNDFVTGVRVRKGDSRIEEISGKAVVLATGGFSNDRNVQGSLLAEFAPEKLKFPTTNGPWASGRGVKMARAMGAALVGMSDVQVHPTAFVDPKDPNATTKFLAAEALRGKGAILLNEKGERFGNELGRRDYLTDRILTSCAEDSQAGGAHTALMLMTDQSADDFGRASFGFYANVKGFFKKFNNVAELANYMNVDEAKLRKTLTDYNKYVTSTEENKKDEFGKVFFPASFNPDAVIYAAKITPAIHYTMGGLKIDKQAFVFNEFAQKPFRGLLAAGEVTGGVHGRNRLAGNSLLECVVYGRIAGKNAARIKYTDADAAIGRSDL

[1] = Inhibition of NADH oxidase in pig heart sub-mitochondrial particles using NADH as substrate after 3 mins measured every 15 sec for 10 mins under aerobic condition; parameters: species or system Sus scrofa

SMILES	IC50 (Fumarate reductase) [nM]	IC50 [1] [µM]
C=C1C=C(C)[C@H](/C(C)=C/C=C/C=C/C=C/[C@]2(C)[C@H]3OC(=O)[C@]2(C)C(=O)[C@@H]3C)O[C@H]1C	840	35
Cc1cc(/C=C/c2ccc3cc(N(C)C)ccc3[n+]2C)c(C)n1-c1ccccc1 [PYRVINIUM PAMOATE]	500	
CO[C@]1(C)C=C(C)[C@H](/C(C)=C/C=C/C=C/C=C/[C@]2(C)[C@H]3OC(=O)[C@]2(C)C(=O)[C@@H]3C)O[C@H]1C	1350	145
CC1=C[C@@](C)(O)[C@@H](C)O[C@H]1/C(C)=C/C=C/C=C/C=C/C(C)=C/[C@]1(C)[C@H]2OC(=O)[C@]1(C)C(=O)[C@@H]2C	2.4	
CC1=C[C@](C)(O)[C@H](/C(C)=C/C=C/C=C/C=C/[C@]2(C)[C@H]3OC(=O)[C@]2(C)C(=O)[C@@H]3C)O[C@H]1C	850	56
CO[C@@]1(C)C=C(C)[C@H](/C(C)=C/C=C/C=C/C=C/[C@]2(C)[C@H]3OC(=O)[C@]2(C)C(=O)[C@@H]3C)O[C@H]1C	840	100
CC1=C[C@@](C)(O)[C@@H](C)O[C@@H]1/C(C)=C/C=C/C=C/C=C/C(C)=C/[C@]1(C)[C@H]2OC(=O)[C@]1(C)C(=O)[C@@H]2C	470	
